Values after ≈ are worked out from the molar mass of the structure shown. Like-named read-outs stand apart in the source and are kept apart here.
Tests used:
Assay type in all cases: cell-based
[1] = tested on: E. coli Mu890; experiment: MIC by broth microdilution AST; details: for MIC (S/I/R): class according to 2016 CLSI handbook; for MIC: microdilution from pure culture
Method: (§1) Varied counts of bacteria were mixed with human blood and diluted 1:9 (v/v) with bacterial growth medium to desired bacterial concentrations (<10 CFU/mL final solution) and plated to independently confirm CFU/mL blood. Saponin was immediately added and the samples shaken for 15 minutes to achieve selective blood cell lysis. After hemolysis, bacteria were spun down and washed with PBS. The pellets were resuspended in bacterial growth medium and incubated at 37° C. for 2 hours, followed by another 3-hour incubation with antibiotics at various fractions of the minimum inhibition concentration (MIC, as independently determined by microdilution from the pure starting culture, Table 1) for sensitive strains or at the CLSI MIC resistant breakpoints^(12) for the highly resistant strains. Changes in scattered light signals largely resulting from bacterial growth inhibition were monitored by flow cytometry, and the difference in the 2-D scatter histograms with and without antibiotic treatment was quantified with PB-sQF statistics.^(1) Using PB-sQF, distance was calculated for each antibiotic concentration relative to its own no-antibiotic control and expressed as “fold distance” relative to the 99% confidence limit distance between the no-antibiotic control and the sensitive breakpoint. This allowed comparison of fold distances among all samples as each is individually paired to its own control, as is each replicate.
(§2) All clinical isolates (E. coli strains Mu14S and Mu890, K. pneumoniae strains Mu670 and Mu55, A. nosocomialis strains M2) were obtained from the Georgia Emerging Infection Program (GEIP). The MIC of each isolate was determined by a clinical microbiology laboratory using post blood culture automated AST and confirmed using broth microdilution in our laboratory. The MICs of each strain were measured to be as follows. For A. nosocomialis strain M2, 1 μg/mL tetracycline, 2 μg/mL gentamicin, and >1024 μg/mL ampicillin. For E. coli strain Mu890, 1 μg/mL tetracycline, 8 μg/mL gentamicin, and >1024 μg/mL ampicillin. For E. coli strain Mu14S, >64 μg/mL tetracycline, 8 μg/mL gentamicin, and >1024 μg/mL ampicillin. For K. pneumoniae strain Mu55, >64 μg/mL tetracycline, 1 μg/mL gentamicin, and >1024 μg/mL ampicillin. For K. pneumoniae strain Mu670, 2 μg/mL tetracycline, 4 μg/mL gentamicin, and >1024 μg/mL ampicillin.

[2] = tested on: K. pneumoniae Mu55; experiment: MIC by broth microdilution AST; details: for MIC: microdilution from pure culture; for MIC (S/I/R): class according to 2016 CLSI handbook
Method: as §1, §2

[3] = tested on: K. pneumoniae Mu670; experiment: MIC by broth microdilution AST; details: for MIC: microdilution from pure culture; for MIC (S/I/R): class according to 2016 CLSI handbook
Method: as §1, §2

[4] = tested on: A. nosocomialis M2; experiment: MIC by broth microdilution AST; details: for MIC: microdilution from pure culture; for MIC (S/I/R): class according to 2016 CLSI handbook
Method: as §1, §2

[5] = tested on: E. coli Mu14S; experiment: MIC by broth microdilution AST; details: for MIC: microdilution from pure culture; for MIC (S/I/R): class according to 2016 CLSI handbook
Method: as §1, §2

[6] = tested on: 10% human blood samples without bacteria inoculation; experiment: Antibiotic-treated 10% human blood only control (no bacteria), flow cytometry; details: 10% human blood without bacteria, around the resistance breakpoints of Enterobacteriaceae
Method: FIGS. 6A-6D. Antibiotic-treated 10% human blood only results. Cytometric data with (FIG. 6A) Ampicillin (FIG. 6B) Tetracycline (FIG. 6C) Gentamicin. The greyscale plots are the no-antibiotic controls and the black contour plots are the antibiotic-treated data with the antibiotic concentration indicated at each plot. (FIG. 6D) PB-sQF results for FIGS. 6A-6C). […] For each antibiotic, the resistant breakpoints of Enterobacteriaceae are 16 μg/mL for tetracycline and gentamicin and 32 μg/mL for ampicillin.
This confirms that the gentamicin sensitivity of Mu14S observed after blood culture^(1) can also be observed on much shorter timescales with FAST. Overnight plating confirms that initial Mu14S counts were 3, 2, 5 and CFU/mL for tetracycline, gentamicin and ampicillin data after 10-fold dilution of the blood/bacteria mixture, corresponding to FAST being performed on whole blood samples containing ˜30, ˜20 and ˜50 CFU/mL. […] Thus, diluting bacterimic blood specimens 1:9 (v:v) directly into saponin-containing growth medium provides a path to ASTs within 8 hours from initial blood draw, with excellent results matching independent (36-44 hrs) MIC determinations from pure, overnight cultures (˜10^8 CFU/mL) that could only be initiated after (˜24 hr) positive blood culture.

[7] = tested on: A. nosocomialis strain M2; experiment: FAST flow cytometry AST with PB-sQF, bacteria recovered from 10% human blood; details: M2 spiked in 10% human blood, assayed within 8 hrs of simulated blood draw
[8] = tested on: E. coli strain Mu890; experiment: as above; details: Mu890 treated with 32 μg/mL (Enterobacteriaceae resistance breakpoint), vs no-antibiotic control
Method: as §1
(§3) To simulate a blood specimen from a patient with bacteremia, the isolates were grown, diluted to the desired CFU/mL in blood (ZenBio, Research Triangle Park, NC) and saponin was added to achieve the final diluted sample. Initial bacterial cultures were prepared using Luria-Bertani (LB) broth for (E. coli) or cation-adjusted Mueller-Hinton broth (CAMHB). The fresh bacterial cultures started from ˜0.05 optical density (OD) by inoculating a 6-mL fresh growth medium with overnight culture were grown in an incubator shaker (MaxQ 4000, Thermal Fisher Scientific, Waltham, MA) at 37° C. and 225 rpm. After the culture reached mid-log phase, bacteria were collected and diluted into ˜10 CFU/mL through serial 10-fold dilutions. Bacterial densities were determined by plating onto LB plates. The final 10-fold dilution was performed by adding 500 μL of 100 CFU/mL into 4500 μL of 10% human blood in medium.
(§4) A 2.5% (w/v) of saponin solution was prepared, sonicated (Branson 2510, Emerson, St. Louis, MO) for 20 minutes and spun down with a clinical centrifuge (Centrific Model 228, Fisher Scientific, Waltham, MA) for 4 minutes. The supernatant cleared of particulates was collected. 500 μL of 2.5% saponin was then added to the 5 mL of 10% human blood sample with ˜10 CFU/mL, described above and the mixtures were shaken at 300 rpm for 15 minutes at 37° C. After the saponin treatment, the bacteria were pelleted and washed with 2 mL of phosphate buffered saline (PBS) (Life Technologies, Carlsbad, CA) using a clinical centrifuge for 2 minutes. Bacterial growth medium (2.5 mL) was then added to the tube and incubated for 2 hours at 37° C. and 225 rpm.
(§5) After the 2-hour incubation, 500-μL aliquots of the suspension were added to each of 4 wells in a 12-well microtiter plate that contained 500 μL of growth medium with or without antibiotic at 2-fold of specified concentrations. The plate was then incubated at 37° C. for 3 hours. Bacteria were collected by centrifugation (Centrifuge 5417R, Eppendorf) and resuspended in 200 μL of PBS for flow cytometry detection. To ensure each clinical isolate was tested at its MIC values of the tested antibiotics, the initial bacterial cultures at the 1000 CFU/mL dilution were also tested for each experiment (FIGS. 4A-4F, 5A-5F, 7A-7F, 8A-8F, and 9A-9F), confirming that the antibiotic concentrations indeed inhibited bacterial growth.
(§6) Cytometric data were collected by BD LSRFortessa flow cytometer (Becton Dickinson, Franklin Lake, NY) equipped with a 100 mW, 488 nm laser for the scatter signal. […]

[9] = tested on: E. coli strain Mu14S; experiment: as above; details: Mu14S treated at each resistant breakpoint (tetracycline 16 μg/mL)
Method: as §1, §3, §4, §5, §6

[10] = tested on: E. coli strain ATCC 33456; experiment: MIC of lab strain E. coli
[11] = tested on: 100% sheep blood only; experiment: Pre-blood culture AST, 100% sheep blood only samples; details: no-antibiotic to 1×MIC
Method: (§7) To search for the condition to separate bacteria from the blood cells, sheep blood was used as a substitute for human blood. In order to remove the blood cells that have a concentration that is 10^6 to 10^7 times higher than the bacteria, 100 μL of 10% (w/v) saponin was added to 1 mL of sheep blood that was spiked with either 100 μL of LB or 10^4 CFU/mL E. coli strain ATCC 33456 (final concentration ˜10^3 CFU/mL) and incubated for 15 minutes at room temperature to lyse the blood cells. The same procedure was applied to 12 samples loaded in eppendorf tubes. These samples were then washed with PBS and resuspended in 500 μL L B broth. All 12 samples were added to the 12-well plate loaded with 480 μL of LB broth and/or penicillin g with 2× higher desired concentrations and 20 μL, 45 μM of MH-IR786. The plate was incubated for 5 hours. Each sample was then collected and analyzed by flow cytometry.

[12] = tested on: E. coli strain ATCC 33456; experiment: Pre-blood culture AST with sheep blood, flow cytometry and PB-sQF
Method: as §7

[13] = tested on: Lab-strain E. coli (ATCC); experiment: FAST with low bacterial counts (500 counts by flow cytometry); details: each antibiotic at MIC, ¼ MIC and 1/16 MIC, bars beyond the 99% confidence line
Description: FIG. 14. Bactericidal Antibiotic-induced changes for low counts of E. coli. Lab-strain E. coli (ATCC) ASTs performed with 500 counts by flow cytometry with gentamicin (Gen), penicillin G (PenG), and tetracycline (Tet) each at MIC, ¼ MIC and 1/16 MIC. This strain is seen to be sensitive to all three antibiotics, as the bars extend beyond the 99% confidence line.
While both morphology and growth inhibition occur upon exposure to antibiotics near the minimum inhibitory concentration, standard ASTs are based on growth inhibition alone. The presence of bacteria is clearly indicated by the presence of a particular scattering peak in the multidimensional histogram. This is much more sensitive and less affected by background than is shifts in a peak resulting from morphological changes upon antibiotic exposure. […] For even a few hundred counts, the presence of a bacterial population can be readily assessed with flow cytometry, but error bars and statistical distances must be properly determined relative to no-antibiotic controls. When too few counts for triplicate runs exist, control and each antibiotic exposure histograms are treated as probability distributions that are representative of the true mother distribution for each condition. Each histogram is binned (either adaptively with probability binning or using regular bins) and the distribution of data within each bin is determined. […]

[14] = Escherichia coli, MU890, E. coli Mu890, read-out: MIC
[15] = Klebsiella pneumoniae, read-out: MIC
[16] = Acinetobacter nosocomialis, read-out: MIC
[17] = Escherichia coli, read-out: MIC

Compound | MIC (S/I/R) ([1]; E. coli Mu890) | MIC [1, 14] [µg/mL] | MIC [2, 15] [µg/mL] | MIC (S/I/R) [2] | MIC [2] [µg/mL] | MIC [3, 15] [µg/mL] | MIC (S/I/R) [3] | MIC [4, 16] [µg/mL] | MIC (S/I/R) [4] | MIC [4] [µg/mL] | MIC [5, 17] [µg/mL] | MIC (S/I/R) [5] | MIC [5] [µg/mL] | also measured
CN(C)[C@@H]1C(O)=C(C(N)=O)C(=O)[C@@]2(O)C(O)=C3C(=O)c4c(O)cccc4[C@@](C)(O)[C@H]3C[C@@H]12 [Tetracycline] | (S) | 1 (≈ 2.25 µM) | > 64 | (R) | >64 | 2 (≈ 4.5 µM) | (S) | 1 (≈ 2.25 µM) | (S) | 1 (≈ 2.25 µM) | > 64 | (R) | >64 | MIC ([1]; E. coli Mu890): 1 µg/mL (≈ 2.25 µM); MIC ([1]; E. coli Mu890, listed as tetracycline): 2 µg/mL (≈ 4.5 µM)
CC1(C)S[C@@H]2[C@H](NC(=O)[C@H](N)c3ccccc3)C(=O)N2[C@H]1C(=O)O [Ampicillin] | (R) | > 1020 | > 1020 | (R) | > 1024 | > 1020 | (R) | > 1020 | (R) | > 1024 | > 1020 | (R) | > 1024 | MIC [3]: > 1024 µg/mL; scattered light histograms change [6]: do not significantly change; PB-sQF FAST susceptibility [7]: resistant; FAST antibiotic-induced scatter signal change [8]: indistinguishable from those of the no-antibiotic control; FAST antibiotic-induced scatter signal change [9]: remained statistically unchanged
CC1(C)S[C@@H]2[C@H](NC(=O)Cc3ccccc3)C(=O)N2[C@H]1C(=O)O [penicillin g] | – | – | – | – | – | – | – | – | – | – | – | – | – | 1×MIC [10]: 32 µg/mL; cytometric data of blood-only samples [11]: remained very similar to each other; cytometric data, growth inhibition ([12]; 1000 CFU/mL E. coli spiked sheep blood, 1×MIC, 5 hours): clear growth inhibition; PB-sQF distance ([12]; 1000 CFU/mL and 10^5 CFU/mL spiked sheep blood, from 1/16×MIC to 1×MIC): clear increment of distance increases; PB-sQF AST susceptibility at low counts [13]: sensitive
